Test results: patent publication US20230157952A1, “METHOD FOR IMPROVING THE STABILITY OF A PHARMACEUTICAL COMPOSITION COMPRISING A HIGH PENETRATION DRUG, AND THE PHARMACEUTICAL COMPOSITION OBTAINED THEREFROM” (Techfields Inc., priority 2020, published 2023)

Test: Effect of temperature (and pH) on the stability of the solution (purity)
Type: physicochemical

## CCN(CC)CCOC(=O)[C@H](C)c1ccc(CC(C)C)cc1.Cl
pH 1.02, 7% solution in water
  Purity (%) at day 21 (60° C.): 0%
  Purity(%) at day 21 (5° C.): 93.1 ± 0.3%
  Purity(%) at day 21 (25° C.): 70.7 ± 0.4%
  Purity(%) at day 21 (40° C.): 18.5 ± 0.3%
pH 2.09, 7% solution in water
  Purity (%) at day 21 (60° C.): 0%
  Purity(%) at day 21 (5° C.): 97.0 ± 0.4%
  Purity(%) at day 21 (25° C.): 86.0 ± 0.4%
  Purity(%) at day 21 (40° C.): 30.6 ± 0.4%
pH 3.01, 7% solution in water
  Purity (%) at day 21 (60° C.): 8.4 ± 0.3%
  Purity(%) at day 21 (25° C.): 96.1 ± 0.3%
  Purity(%) at day 21 (40° C.): 56.1 ± 0.4%
pH 3.68, 7% solution in water
  Purity (%) at day 21 (60° C.): 16.0 ± 0.4%
  Purity(%) at day 21 (40° C.): 64.1 ± 0.5%
pH 4.07, 7% solution in water
  Purity (%) at day 21 (60° C.): 22.7 ± 0.4%
  Purity(%) at day 21 (40° C.): 72.6 ± 0.4%
pH 4.35, 7% solution in water
  Purity (%) at day 21 (60° C.): 18.3 ± 0.3%
  Purity(%) at day 21 (40° C.): 72.6 ± 0.5%
pH 4.67, 7% solution in water
  Purity (%) at day 21 (60° C.): 10.4 ± 0.5%
  Purity(%) at day 21 (25° C.): 97.5 ± 0.4%
  Purity(%) at day 21 (40° C.): 58.3 ± 0.4%
pH 4.96, 7% solution in water
  Purity (%) at day 21 (60° C.): 4.0 ± 0.3%
  Purity(%) at day 21 (5° C.): 97.0 ± 0.4%
  Purity(%) at day 21 (25° C.): 95.1 ± 0.4%
  Purity(%) at day 21 (40° C.): 50.5 ± 0.5%
pH 5.98, 7% solution in water
  Purity (%) at day 21 (60° C.): 0%
  Purity(%) at day 21 (5° C.): 95.8 ± 0.4%
  Purity(%) at day 21 (25° C.): 90.2 ± 0.4%
  Purity(%) at day 21 (40° C.): 29.9 ± 0.4%
pH 6.99, 7% solution in water
  Purity (%) at day 21 (60° C.): 0%
  Purity(%) at day 21 (5° C.): 90.0 ± 0.5%
  Purity(%) at day 21 (25° C.): 77.1 ± 0.4%
  Purity(%) at day 21 (40° C.): 19.9 ± 0.4%
pH 8.01, 7% solution in water
  Purity (%) at day 21 (60° C.): 0%
  Purity(%) at day 0: 97.6 ± 0.5%
  Purity(%) at day 21 (5° C.): 81.1 ± 0.5%
  Purity(%) at day 21 (25° C.): 52.3 ± 0.4%
  Purity(%) at day 21 (40° C.): 0%

## CCN(CC)CCOC(=O)C(C)c1ccc(-c2ccccc2)c(F)c1.Cl (racemic)
7% solution in water, pH 1.0, day 21, 5° C.
  Purity(%) at day 21 (5° C.): 94.0 ± 0.3%
7% solution in water, pH 1.0, day 21, 25° C.
  Purity(%) at day 21 (25° C.): 72.0 ± 0.3%
7% solution in water, pH 1.0, day 21, 40° C.
  Purity(%) at day 21 (40° C.): 18.5 ± 0.3%
7% solution in water, pH 1.0, day 21, 60° C.
  Purity (%) at day 21 (60° C.): 0%
7% solution in water, pH 2.0, day 21, 25° C.
  Purity(%) at day 21 (25° C.): 86.1 ± 0.3%
7% solution in water, pH 2.0, day 21, 40° C.
  Purity(%) at day 21 (40° C.): 30.1 ± 0.4%
7% solution in water, pH 2.0, day 21, 60° C.
  Purity (%) at day 21 (60° C.): 0%
7% solution in water, pH 3.0, day 21, 25° C.
  Purity(%) at day 21 (25° C.): 96.0 ± 0.2%
7% solution in water, pH 3.0, day 21, 40° C.
  Purity(%) at day 21 (40° C.): 56.5 ± 0.3%
7% solution in water, pH 3.0, day 21, 60° C.
  Purity (%) at day 21 (60° C.): 8.7 ± 0.3%
7% solution in water, pH 3.7, day 21, 25° C.
  Purity(%) at day 21 (25° C.): 97.5 ± 0.1%
7% solution in water, pH 3.7, day 21, 40° C.
  Purity(%) at day 21 (40° C.): 64.5 ± 0.3%
7% solution in water, pH 3.7, day 21, 60° C.
  Purity (%) at day 21 (60° C.): 16.2 ± 0.3%
7% solution in water, pH 4.0, day 21, 40° C.
  Purity(%) at day 21 (40° C.): 72.3 ± 0.3%
7% solution in water, pH 4.0, day 21, 60° C.
  Purity (%) at day 21 (60° C.): 22.4 ± 0.3%
7% solution in water, pH 4.3, day 21, 40° C.
  Purity(%) at day 21 (40° C.): 72.2 ± 0.3%
7% solution in water, pH 4.3, day 21, 60° C.
  Purity (%) at day 21 (60° C.): 18.3 ± 0.2%
7% solution in water, pH 4.6, day 21, 40° C.
  Purity(%) at day 21 (40° C.): 58.1 ± 0.4%
7% solution in water, pH 4.6, day 21, 60° C.
  Purity (%) at day 21 (60° C.): 10.4 ± 0.3%
7% solution in water, pH 5.0, day 21, 5° C.
  Purity(%) at day 21 (5° C.): 97.6 ± 0.2%
7% solution in water, pH 5.0, day 21, 25° C.
  Purity(%) at day 21 (25° C.): 96.7 ± 0.2%
7% solution in water, pH 5.0, day 21, 40° C.
  Purity(%) at day 21 (40° C.): 50.1 ± 0.3%
7% solution in water, pH 5.0, day 21, 60° C.
  Purity (%) at day 21 (60° C.): 3.0 ± 0.3%
7% solution in water, pH 6.0, day 21, 5° C.
  Purity(%) at day 21 (5° C.): 95.4 ± 0.2%
7% solution in water, pH 6.0, day 21, 25° C.
  Purity(%) at day 21 (25° C.): 90.5 ± 0.3%
7% solution in water, pH 6.0, day 21, 40° C.
  Purity(%) at day 21 (40° C.): 29.7 ± 0.4%
7% solution in water, pH 6.0, day 21, 60° C.
  Purity (%) at day 21 (60° C.): 0%
7% solution in water, pH 7.0, day 21, 5° C.
  Purity(%) at day 21 (5° C.): 89.7 ± 0.3%
7% solution in water, pH 7.0, day 21, 25° C.
  Purity(%) at day 21 (25° C.): 75.1 ± 0.3%
7% solution in water, pH 7.0, day 21, 40° C.
  Purity(%) at day 21 (40° C.): 19.8 ± 0.3%
7% solution in water, pH 7.0, day 21, 60° C.
  Purity (%) at day 21 (60° C.): 0%
7% solution in water, pH 8.0, day 21, 5° C.
  Purity(%) at day 21 (5° C.): 81.9 ± 0.3%
7% solution in water, pH 8.0, day 21, 25° C.
  Purity(%) at day 21 (25° C.): 52.8 ± 0.3%
7% solution in water, pH 8.0, day 21, 40° C.
  Purity(%) at day 21 (40° C.): 0%
7% solution in water, pH 8.0, day 21, 60° C.
  Purity (%) at day 21 (60° C.): 0%

## CCN(CC)CCOC(=O)C(C)c1ccc(CC(C)C)cc1.Cl (racemic)
pH 1.02, 7% solution in water
  Purity (%) at day 21 (60° C.): 0%
  Purity(%) at day 21 (5° C.): 93.7 ± 0.3%
  Purity(%) at day 21 (25° C.): 73.0 ± 0.4%
  Purity(%) at day 21 (40° C.): 18.6 ± 0.4%
pH 2.09, 7% solution in water
  Purity (%) at day 21 (60° C.): 0%
  Purity(%) at day 21 (5° C.): 97.6 ± 0.4%
  Purity(%) at day 21 (25° C.): 86.1 ± 0.3%
  Purity(%) at day 21 (40° C.): 30.4 ± 0.3%
pH 3.00, 7% solution in water
  Purity (%) at day 21 (60° C.): 8.8 ± 0.3%
  Purity(%) at day 21 (25° C.): 96.5 ± 0.4%
  Purity(%) at day 21 (40° C.): 56.3 ± 0.4%
pH 3.68, 7% solution in water
  Purity (%) at day 21 (60° C.): 16.4 ± 0.4%
  Purity(%) at day 21 (40° C.): 64.3 ± 0.4%
pH 4.07, 7% solution in water
  Purity (%) at day 21 (60° C.): 22.6 ± 0.4%
  Purity(%) at day 21 (40° C.): 72.7 ± 0.3%
pH 4.35, 7% solution in water
  Purity (%) at day 21 (60° C.): 18.8 ± 0.2%
  Purity(%) at day 21 (40° C.): 72.6 ± 0.3%
pH 4.67, 7% solution in water
  Purity (%) at day 21 (60° C.): 10.3 ± 0.3%
  Purity(%) at day 21 (40° C.): 58.2 ± 0.4%
pH 4.95, 7% solution in water
  Purity (%) at day 21 (60° C.): 3.9 ± 0.3%
  Purity(%) at day 21 (5° C.): 97.5 ± 0.4%
  Purity(%) at day 21 (25° C.): 95.4 ± 0.4%
  Purity(%) at day 21 (40° C.): 50.2 ± 0.4%
pH 5.98, 7% solution in water
  Purity (%) at day 21 (60° C.): 0%
  Purity(%) at day 21 (5° C.): 96.1 ± 0.3%
  Purity(%) at day 21 (25° C.): 90.7 ± 0.3%
  Purity(%) at day 21 (40° C.): 29.9 ± 0.2%
pH 6.98, 7% solution in water
  Purity (%) at day 21 (60° C.): 0%
  Purity(%) at day 21 (5° C.): 90.7 ± 0.4%
  Purity(%) at day 21 (25° C.): 78.6 ± 0.4%
  Purity(%) at day 21 (40° C.): 19.7 ± 0.4%
pH 8.01, 7% solution in water
  Purity (%) at day 21 (60° C.): 0%
  Purity(%) at day 21 (5° C.): 81.6 ± 0.5%
  Purity(%) at day 21 (25° C.): 52.5 ± 0.5%
  Purity(%) at day 21 (40° C.): 0%

## CCN(CC)CCOC(=O)[C@H](C)c1ccc2cc(OC)ccc2c1.Cl (racemic)
pH 1.02, 7% solution in water
  Purity (%) at day 21 (60° C.): 0%
  Purity(%) at day 21 (5° C.): 93.8 ± 0.2%
  Purity(%) at day 21 (25° C.): 72.2 ± 0.2%
  Purity(%) at day 21 (40° C.): 18.1 ± 0.3%
pH 2.09, 7% solution in water
  Purity (%) at day 21 (60° C.): 0%
  Purity(%) at day 21 (25° C.): 86.3 ± 0.2%
  Purity(%) at day 21 (40° C.): 30.2 ± 0.4%
pH 3.00, 7% solution in water
  Purity (%) at day 21 (60° C.): 7.9 ± 0.2%
  Purity(%) at day 21 (25° C.): 96.3 ± 0.2%
  Purity(%) at day 21 (40° C.): 56.7 ± 0.2%
pH 3.68, 7% solution in water
  Purity (%) at day 21 (60° C.): 15.3 ± 0.4%
  Purity(%) at day 21 (40° C.): 63.7 ± 0.2%
pH 4.07, 7% solution in water
  Purity (%) at day 21 (60° C.): 21.5 ± 0.3%
  Purity(%) at day 21 (40° C.): 72.5 ± 0.3%
pH 4.35, 7% solution in water
  Purity (%) at day 21 (60° C.): 18.7 ± 0.2%
  Purity(%) at day 21 (40° C.): 72.3 ± 0.2%
pH 4.67, 7% solution in water
  Purity (%) at day 21 (60° C.): 10.6 ± 0.2%
  Purity(%) at day 21 (40° C.): 58.5 ± 0.2%
pH 4.95, 7% solution in water
  Purity (%) at day 21 (60° C.): 3.1 ± 0.3%
  Purity(%) at day 21 (25° C.): 95.5 ± 0.3%
  Purity(%) at day 21 (40° C.): 50.6 ± 0.2%
pH 5.98, 7% solution in water
  Purity (%) at day 21 (60° C.): 0%
  Purity(%) at day 21 (5° C.): 96.1 ± 0.2%
  Purity(%) at day 21 (25° C.): 90.7 ± 0.3%
  Purity(%) at day 21 (40° C.): 30.3 ± 0.3%
pH 6.98, 7% solution in water
  Purity (%) at day 21 (60° C.): 0%
  Purity(%) at day 21 (5° C.): 90.9 ± 0.2%
  Purity(%) at day 21 (25° C.): 70.8 ± 0.2%
  Purity(%) at day 21 (40° C.): 19.9 ± 0.3%
pH 8.01, 7% solution in water
  Purity (%) at day 21 (60° C.): 0%
  Purity(%) at day 21 (5° C.): 81.9 ± 0.2%
  Purity(%) at day 21 (25° C.): 58.8 ± 0.2%
  Purity(%) at day 21 (40° C.): 0%
